In ChEMBL document CHEMBL5291721, “A preclinical secondary pharmacology resource illuminates target-adverse drug reaction associations of marketed drugs” (Nat Commun, 2023):

Experiments:
[1] = biological target: T1, Alpha-1A adrenergic receptor (Homo sapiens, UniProt P35348); assay type: functional, cell-based
T1 sequence (P35348 whole entry): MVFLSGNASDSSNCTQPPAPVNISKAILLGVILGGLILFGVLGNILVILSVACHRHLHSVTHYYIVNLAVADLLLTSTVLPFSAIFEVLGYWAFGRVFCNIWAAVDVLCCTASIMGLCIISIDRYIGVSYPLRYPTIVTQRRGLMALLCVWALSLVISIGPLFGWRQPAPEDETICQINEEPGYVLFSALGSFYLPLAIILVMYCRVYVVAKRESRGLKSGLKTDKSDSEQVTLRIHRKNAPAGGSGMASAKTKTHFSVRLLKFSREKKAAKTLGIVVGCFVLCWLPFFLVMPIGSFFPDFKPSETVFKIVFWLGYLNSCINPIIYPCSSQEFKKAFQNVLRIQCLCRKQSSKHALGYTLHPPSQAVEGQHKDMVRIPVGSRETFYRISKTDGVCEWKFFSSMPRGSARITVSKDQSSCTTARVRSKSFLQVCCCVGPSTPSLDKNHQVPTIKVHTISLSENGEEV

Mu-type opioid receptor = Mu-type opioid receptor (Homo sapiens, UniProt P35372)
Chain of Mu-type opioid receptor (P35372 whole entry): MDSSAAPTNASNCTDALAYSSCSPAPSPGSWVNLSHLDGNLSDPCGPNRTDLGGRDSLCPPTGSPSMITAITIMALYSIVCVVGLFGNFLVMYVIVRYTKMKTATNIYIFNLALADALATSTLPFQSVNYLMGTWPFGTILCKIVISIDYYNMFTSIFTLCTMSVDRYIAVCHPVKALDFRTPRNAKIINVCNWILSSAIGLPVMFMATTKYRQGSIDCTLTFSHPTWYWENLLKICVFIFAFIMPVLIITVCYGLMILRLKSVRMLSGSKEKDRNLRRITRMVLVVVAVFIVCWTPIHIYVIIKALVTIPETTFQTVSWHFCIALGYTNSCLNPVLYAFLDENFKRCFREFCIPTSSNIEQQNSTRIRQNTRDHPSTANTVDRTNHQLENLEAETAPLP

Acetylcholinesterase = Acetylcholinesterase (Homo sapiens, UniProt P22303); assay type: functional
Chain of Acetylcholinesterase (P22303 whole entry): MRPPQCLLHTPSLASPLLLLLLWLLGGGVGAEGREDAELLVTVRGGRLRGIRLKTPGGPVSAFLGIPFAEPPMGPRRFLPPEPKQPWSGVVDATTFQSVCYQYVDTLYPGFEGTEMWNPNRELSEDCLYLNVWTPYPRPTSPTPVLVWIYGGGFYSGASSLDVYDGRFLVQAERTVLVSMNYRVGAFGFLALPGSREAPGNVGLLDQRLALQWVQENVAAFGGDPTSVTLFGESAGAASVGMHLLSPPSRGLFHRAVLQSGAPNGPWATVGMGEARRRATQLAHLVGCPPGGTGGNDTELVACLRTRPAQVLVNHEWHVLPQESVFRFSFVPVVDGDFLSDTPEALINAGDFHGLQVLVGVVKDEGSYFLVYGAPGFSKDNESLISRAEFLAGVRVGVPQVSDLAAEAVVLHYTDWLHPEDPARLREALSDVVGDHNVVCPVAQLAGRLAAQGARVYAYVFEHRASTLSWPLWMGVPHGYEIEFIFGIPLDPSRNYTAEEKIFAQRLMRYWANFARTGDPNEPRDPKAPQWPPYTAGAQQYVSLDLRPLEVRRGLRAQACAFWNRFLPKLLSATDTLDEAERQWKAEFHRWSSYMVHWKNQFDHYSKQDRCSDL

Thromboxane A2 receptor = biological target: T2, Thromboxane A2 receptor (Homo sapiens, UniProt P21731); assay type: functional, cell-based
T2 sequence (P21731 whole entry): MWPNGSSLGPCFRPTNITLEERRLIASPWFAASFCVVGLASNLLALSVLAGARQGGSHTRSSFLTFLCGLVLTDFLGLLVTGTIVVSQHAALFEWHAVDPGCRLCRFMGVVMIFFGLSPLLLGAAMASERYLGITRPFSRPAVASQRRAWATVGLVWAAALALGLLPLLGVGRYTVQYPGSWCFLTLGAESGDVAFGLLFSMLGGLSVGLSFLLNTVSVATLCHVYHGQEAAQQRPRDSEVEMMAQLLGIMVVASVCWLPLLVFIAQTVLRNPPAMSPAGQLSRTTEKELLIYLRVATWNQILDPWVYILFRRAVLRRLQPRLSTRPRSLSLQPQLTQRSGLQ

Adenosine receptor A3 = biological target: T3, Adenosine receptor A3 (Homo sapiens, UniProt P0DMS8)
T3 sequence (P0DMS8 whole entry): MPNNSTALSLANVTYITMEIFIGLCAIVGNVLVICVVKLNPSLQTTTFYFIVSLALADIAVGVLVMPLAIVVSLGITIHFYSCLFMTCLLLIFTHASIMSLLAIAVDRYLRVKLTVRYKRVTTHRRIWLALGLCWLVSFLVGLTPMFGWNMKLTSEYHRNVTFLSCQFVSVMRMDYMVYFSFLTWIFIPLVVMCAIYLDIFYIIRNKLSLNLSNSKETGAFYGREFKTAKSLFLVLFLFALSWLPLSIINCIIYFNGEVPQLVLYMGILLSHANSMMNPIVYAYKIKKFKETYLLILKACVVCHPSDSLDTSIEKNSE

[2] = biological target: Sodium-dependent dopamine transporter (Homo sapiens, UniProt Q01959)
Chain of Sodium-dependent dopamine transporter (Q01959 whole entry): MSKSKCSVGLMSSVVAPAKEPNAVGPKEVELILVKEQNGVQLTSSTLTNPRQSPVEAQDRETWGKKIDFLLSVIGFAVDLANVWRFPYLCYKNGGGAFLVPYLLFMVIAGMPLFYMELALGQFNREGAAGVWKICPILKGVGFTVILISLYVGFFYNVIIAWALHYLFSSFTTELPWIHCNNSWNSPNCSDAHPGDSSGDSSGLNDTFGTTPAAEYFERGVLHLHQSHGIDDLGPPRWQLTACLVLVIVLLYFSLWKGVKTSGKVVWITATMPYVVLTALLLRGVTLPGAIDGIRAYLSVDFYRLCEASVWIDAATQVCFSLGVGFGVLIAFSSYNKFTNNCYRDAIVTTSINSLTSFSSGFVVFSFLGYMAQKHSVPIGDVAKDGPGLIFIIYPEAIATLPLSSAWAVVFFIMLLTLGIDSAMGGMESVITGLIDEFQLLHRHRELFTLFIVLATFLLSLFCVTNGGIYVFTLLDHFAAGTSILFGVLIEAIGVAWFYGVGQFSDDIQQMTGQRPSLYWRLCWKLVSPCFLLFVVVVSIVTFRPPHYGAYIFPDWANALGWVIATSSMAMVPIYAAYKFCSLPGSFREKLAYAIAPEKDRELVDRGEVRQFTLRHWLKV

Estrogen receptor = biological target: T4, Estrogen receptor (Homo sapiens, UniProt P03372)
T4 sequence (P03372 whole entry): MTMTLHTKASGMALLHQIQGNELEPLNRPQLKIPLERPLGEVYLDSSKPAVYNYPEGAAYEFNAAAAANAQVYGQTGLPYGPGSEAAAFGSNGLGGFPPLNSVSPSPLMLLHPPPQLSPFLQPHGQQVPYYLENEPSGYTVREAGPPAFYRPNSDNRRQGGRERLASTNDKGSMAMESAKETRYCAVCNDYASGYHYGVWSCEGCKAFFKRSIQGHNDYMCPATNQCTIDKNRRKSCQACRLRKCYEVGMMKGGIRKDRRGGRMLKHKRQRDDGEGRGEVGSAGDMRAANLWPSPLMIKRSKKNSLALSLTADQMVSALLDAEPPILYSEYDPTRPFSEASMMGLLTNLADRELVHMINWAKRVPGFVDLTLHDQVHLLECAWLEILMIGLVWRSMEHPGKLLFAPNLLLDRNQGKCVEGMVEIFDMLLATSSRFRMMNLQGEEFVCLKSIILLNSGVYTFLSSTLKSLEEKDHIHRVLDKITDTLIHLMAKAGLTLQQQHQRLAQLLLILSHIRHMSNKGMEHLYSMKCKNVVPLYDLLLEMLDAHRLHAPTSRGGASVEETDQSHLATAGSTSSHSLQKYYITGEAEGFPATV

[3] = biological target: T5, Prostaglandin G/H synthase 1 (Homo sapiens, UniProt P23219); assay type: functional
T5 sequence (P23219 whole entry): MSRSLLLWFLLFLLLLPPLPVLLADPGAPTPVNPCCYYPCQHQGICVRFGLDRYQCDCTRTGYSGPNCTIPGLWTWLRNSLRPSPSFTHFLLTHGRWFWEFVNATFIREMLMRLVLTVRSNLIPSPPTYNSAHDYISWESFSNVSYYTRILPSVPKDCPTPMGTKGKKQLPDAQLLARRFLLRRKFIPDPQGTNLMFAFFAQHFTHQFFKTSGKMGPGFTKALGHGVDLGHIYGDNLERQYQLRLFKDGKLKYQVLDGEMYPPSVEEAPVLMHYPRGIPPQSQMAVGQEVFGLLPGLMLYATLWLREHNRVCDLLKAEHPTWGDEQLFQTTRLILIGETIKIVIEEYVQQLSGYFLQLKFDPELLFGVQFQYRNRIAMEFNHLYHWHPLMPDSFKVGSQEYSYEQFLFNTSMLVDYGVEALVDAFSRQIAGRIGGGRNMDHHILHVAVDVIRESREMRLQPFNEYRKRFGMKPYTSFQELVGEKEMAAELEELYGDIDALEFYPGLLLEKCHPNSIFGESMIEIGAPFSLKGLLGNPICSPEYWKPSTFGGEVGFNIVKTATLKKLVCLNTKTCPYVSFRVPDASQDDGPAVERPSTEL

[4] = biological target: T5, Prostaglandin G/H synthase 1; assay type: functional; remark: listed apart in the source
[5] = biological target: T6, Muscarinic acetylcholine receptor M2 (Homo sapiens, UniProt P08172)
T6 sequence (P08172 whole entry): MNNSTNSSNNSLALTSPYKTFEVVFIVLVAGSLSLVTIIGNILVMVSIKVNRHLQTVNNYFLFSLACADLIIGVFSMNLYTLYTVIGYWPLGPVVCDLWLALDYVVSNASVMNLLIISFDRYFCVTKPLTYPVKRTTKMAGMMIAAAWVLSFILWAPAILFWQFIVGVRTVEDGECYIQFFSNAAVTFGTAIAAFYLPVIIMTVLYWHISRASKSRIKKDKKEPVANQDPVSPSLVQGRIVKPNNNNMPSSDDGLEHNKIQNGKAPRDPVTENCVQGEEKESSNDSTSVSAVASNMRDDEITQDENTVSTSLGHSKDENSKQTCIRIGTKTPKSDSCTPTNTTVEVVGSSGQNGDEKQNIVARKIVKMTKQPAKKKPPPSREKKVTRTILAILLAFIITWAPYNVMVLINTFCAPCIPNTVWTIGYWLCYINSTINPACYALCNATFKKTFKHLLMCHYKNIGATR
Also: assay procedure not described here.

| Compound | AC50 [1] [µM] | AC50 (Mu-type opioid receptor) [µM] | AC50 (Acetylcholinesterase) [µM] | AC50 (Thromboxane A2 receptor) [µM] | AC50 (Adenosine receptor A3) [µM] | AC50 [2] [µM] | AC50 (Estrogen receptor) [µM] | AC50 [3] [µM] | AC50 [4] [µM] | AC50 [5] [µM] |
| --- | --- | --- | --- | --- | --- | --- | --- | --- | --- | --- |
| Nc1nc2nc[nH]c2c(=S)[nH]1 [THIOGUANINE] | > 30 | > 30 | > 30 | > 30 | > 30 | > 30 | > 30 | 0.81 | 1.32 | > 30 |
| OC(CCN1CCCCC1)(c1ccccc1)c1ccccc1 [PRIDINOL] | > 30 | 19.4 | > 30 | > 30 | > 30 | > 30 | > 30 | > 30 | > 30 | 0.129 |
| CC(=O)Oc1c(C)c(C)c2c(c1C)CC[C@@](C)(CCC[C@H](C)CCC[C@H](C)CCCC(C)C)O2 | > 30 | > 30 | > 30 | > 30 | > 30 | > 30 | > 30 | > 30 | > 30 | > 30 |
| CC(=O)OCC1=C(C(=O)O)N2C(=O)[C@@H](NC(=O)[C@H](N)c3ccccc3)[C@H]2SC1 [CEPHALOGLYCIN] | > 30 | > 30 | > 30 | > 30 | > 30 | > 30 | > 30 | 5.93 | 26.5 | > 30 |
| OB1OCc2cc(F)ccc21 [TAVABOROLE] | > 30 | > 30 | > 30 | > 30 | > 30 | > 30 | > 30 | > 30 | > 30 | > 30 |
| O=C(Nc1ccc(Cl)cc1)Nc1ccc(Cl)c(Cl)c1 [TRICLOCARBAN] | > 30 | 4.85 | > 30 | > 30 | 2.08 | > 10 | > 30 | > 30 | > 30 | > 30 |
| CC(C)C[C@H]1C(=O)N2CCC[C@H]2[C@]2(O)O[C@](NC(=O)[C@@H]3C[C@@H]4c5cccc6[nH]cc(c56)C[C@H]4N(C)C3)(C(C)C)C(=O)N12 [DIHYDROERGOCRYPTINE] | 5.77 | 10.3 | > 30 | > 30 | > 30 | > 30 | > 30 | 18.4 | 27.4 | > 30 |
| Clc1ccc(C(OCCN2CCCCC2)c2ccccc2)cc1 (stereo not given) [CLOPERASTINE] | > 30 | 13.6 | > 30 | 17 | > 30 | 1.09 | > 30 | > 30 | > 30 | 0.331 |
| CCN(CC)CCNc1ccc(CO)c2sc3ccccc3c(=O)c12 [HYCANTHONE] | > 30 | 23 | > 30 | 23.1 | > 30 | 12.5 | > 30 | > 30 | > 30 | 4.47 |
| CCCNC(C)C(=O)Nc1c(C)csc1C(=O)OC (stereo not given) [ARTICAINE] | > 30 | > 30 | > 30 | > 30 | > 30 | > 30 | > 30 | > 30 | > 30 | > 30 |
| Nc1ccc(S(=O)(=O)c2cnc(N)s2)cc1 [THIAZOLSULFONE] | > 30 | > 30 | > 30 | > 30 | 13.8 | 24.3 | > 30 | > 30 | > 30 | > 30 |
| CCOc1ccccc1OCC1CNCCO1 (stereo not given) [VILOXAZINE] | > 30 | > 30 | > 30 | > 30 | > 30 | > 30 | > 30 | > 30 | > 30 | > 30 |
| CC(C)(C)C(=O)C(Oc1ccc(Cl)cc1)n1ccnc1 (stereo not given) [CLIMBAZOLE] | > 30 | > 30 | > 30 | > 30 | 20.2 | 0.0662 | > 30 | > 30 | > 30 | > 30 |
| O=[N+]([O-])c1cn2c(n1)OC[C@@H](OCc1ccc(OC(F)(F)F)cc1)C2 [PRETOMANID] | > 10 | > 30 | > 30 | > 30 | > 30 | > 30 | > 30 | > 30 | > 30 | > 30 |
| CC(=O)c1ccc2c(c1)N(CCCN(C)C)c1ccccc1S2 [ACEPROMAZINE] | > 30 | 2.42 | > 30 | 13.7 | > 30 | 19.5 | > 30 | > 30 | > 30 | 0.204 |
